Laboratory results from PubChem BioAssay AID1259407 (Chemical Carcinogenesis Research Information System (CCRIS), 2018).
Active and inactive are the calls of the source. The rule behind the calls is not given here.

System: CCRIS mutagenicity, Ames/micronucleus/aberration tests
Experiment: CCRIS mutagenicity studies

## Cc1cccn2c1nc1ccc(N)nc12
Test System: AMES SALMONELLA TYPHIMURIUM, Strain/Indicator: TA98, Metabolic Activation: MOUSE, LIVER, MICROSOMES, TCDD, Method: STANDARD PLATE
  mutagenic call: active; positive
Test System: AMES SALMONELLA TYPHIMURIUM, Strain/Indicator: TA98, Metabolic Activation: MOUSE, LIVER, MICROSOMES, Method: STANDARD PLATE
  mutagenic call: active; positive
Test System: AMES SALMONELLA TYPHIMURIUM, Strain/Indicator: TA98, Metabolic Activation: RAT LIVER, CYTOSOL, AROCLOR 1254, Method: STANDARD PLATE
  mutagenic call: inactive; negative
Test System: AMES SALMONELLA TYPHIMURIUM, Strain/Indicator: TA98, Metabolic Activation: RAT LIVER, MICROSOMES, AROCLOR 1254, Method: STANDARD PLATE
  mutagenic call: active; positive
Test System: AMES SALMONELLA TYPHIMURIUM, Strain/Indicator: TA98, Metabolic Activation: RAT, LIVER, MICROSOMES, 1-METHYLCHRYSENE, Method: PREINCUBATION
  mutagenic call: active; positive
Test System: AMES SALMONELLA TYPHIMURIUM, Strain/Indicator: TA98, Metabolic Activation: RAT, LIVER, MICROSOMES, 2-METHYLCHRYSENE, Method: PREINCUBATION
  mutagenic call: active; positive
Test System: AMES SALMONELLA TYPHIMURIUM, Strain/Indicator: TA98, Metabolic Activation: RAT, LIVER, MICROSOMES, 3-METHYLCHRYSENE, Method: PREINCUBATION
  mutagenic call: active; positive
Test System: AMES SALMONELLA TYPHIMURIUM, Strain/Indicator: TA98, Metabolic Activation: RAT, LIVER, MICROSOMES, 4-METHYLCHRYSENE, Method: PREINCUBATION
  mutagenic call: active; positive
Test System: AMES SALMONELLA TYPHIMURIUM, Strain/Indicator: TA98, Metabolic Activation: RAT, LIVER, MICROSOMES, 5-METHYLCHRYSENE, Method: PREINCUBATION
  mutagenic call: active; positive
Test System: AMES SALMONELLA TYPHIMURIUM, Strain/Indicator: TA98, Metabolic Activation: RAT, LIVER, MICROSOMES, 6-AMINOCHRYSENE, Method: PREINCUBATION
  mutagenic call: active; positive
Test System: AMES SALMONELLA TYPHIMURIUM, Strain/Indicator: TA98, Metabolic Activation: RAT, LIVER, MICROSOMES, 6-METHYLCHRYSENE, Method: PREINCUBATION
  mutagenic call: active; positive
Test System: AMES SALMONELLA TYPHIMURIUM, Strain/Indicator: TA98, Metabolic Activation: RAT, LIVER, MICROSOMES, BENZO[B]CHRYSENE, Method: PREINCUBATION
  mutagenic call: active; positive
Test System: AMES SALMONELLA TYPHIMURIUM, Strain/Indicator: TA98, Metabolic Activation: RAT, LIVER, MICROSOMES, BENZO[C]CHRYSENE, Method: PREINCUBATION
  mutagenic call: active; positive
Test System: AMES SALMONELLA TYPHIMURIUM, Strain/Indicator: TA98, Metabolic Activation: RAT, LIVER, S-9, AROCLOR 1254, Method: PREINCUBATION
  mutagenic call: active; positive
Test System: AMES SALMONELLA TYPHIMURIUM, Strain/Indicator: TA100, Metabolic Activation: RAT, LIVER, S-9, AROCLOR 1254, Method: PREINCUBATION
  mutagenic call: active; positive
Test System: AMES SALMONELLA TYPHIMURIUM, Strain/Indicator: TA1538, Metabolic Activation: RAT, LIVER, MICROSOMES, 2-ACETYLAMINOFLUORENE, Method: STANDARD PLATE
  mutagenic call: active; positive
Test System: AMES SALMONELLA TYPHIMURIUM, Strain/Indicator: TA1538, Metabolic Activation: RAT, LIVER, MICROSOMES, 4-ACETYLAMINOFLUORENE, Method: STANDARD PLATE
  mutagenic call: active; positive
Test System: AMES SALMONELLA TYPHIMURIUM, Strain/Indicator: TA1538, Metabolic Activation: RAT, LIVER, MICROSOMES, Method: STANDARD PLATE
  mutagenic call: active; positive
Test System: AMES SALMONELLA TYPHIMURIUM, Strain/Indicator: YG1012, Metabolic Activation: RAT, LIVER, S-9, PHENOBARBITAL AND 5,6-BENZOFLAVONE, Method: PREINCUBATION
  mutagenic call: active; positive
Test System: AMES SALMONELLA TYPHIMURIUM, Strain/Indicator: YG1019, Metabolic Activation: RAT LIVER S-9, AROCLOR, Method: PREINCUBATION
  mutagenic call: active; positive
Test System: AMES SALMONELLA TYPHIMURIUM, Strain/Indicator: YG1019, Metabolic Activation: RAT, LIVER, S-9, PHENOBARBITAL AND 5,6-BENZOFLAVONE, Method: PREINCUBATION
  mutagenic call: active; positive
Test System: AMES SALMONELLA TYPHIMURIUM, Strain/Indicator: YG1020, Metabolic Activation: RAT, LIVER, S-9, PHENOBARBITAL AND 5,6-BENZOFLAVONE, Method: PREINCUBATION
  mutagenic call: active; positive
Test System: AMES SALMONELLA TYPHIMURIUM, Strain/Indicator: YG1024, Metabolic Activation: RAT, LIVER, S-9, PHENOBARBITAL AND 5,6-BENZOFLAVONE, Method: PREINCUBATION
  mutagenic call: active; positive
Test System: AMES SALMONELLA TYPHIMURIUM, Strain/Indicator: YG1025, Metabolic Activation: RAT, LIVER, S-9, PHENOBARBITAL AND 5,6-BENZOFLAVONE, Method: PREINCUBATION
  mutagenic call: active; positive
Test System: AMES SALMONELLA TYPHIMURIUM, Strain/Indicator: YG1029, Metabolic Activation: RAT, LIVER, S-9, PHENOBARBITAL AND 5,6-BENZOFLAVONE, Method: PREINCUBATION
  mutagenic call: active; positive
Test System: UDS HUMAN HEPATOCYTES, Strain/Indicator: THY INCORP, Metabolic Activation: NONE, Method: AUTORADIOGRAPHY
  mutagenic call: active; positive
Test System: UDS MOUSE HEPATOCYTES, Strain/Indicator: THY INCORP, Metabolic Activation: NONE, Method: AUTORADIOGRAPHY
  mutagenic call: active; positive
Test System: UDS RAT HEPATOCYTES, Strain/Indicator: THY INCORP, Metabolic Activation: NONE, Method: AUTORADIOGRAPHY
  mutagenic call: inactive; negative

## O=C(O)CBr
End Point: IN VITRO CHROMOSOMAL ABERRATIONS, Test System: CHL CELLS, Metabolic Activation: NONE
  mutagenic call: active; positive (structural changes)
End Point: IN VITRO CHROMOSOMAL ABERRATIONS, Test System: CHL CELLS, Metabolic Activation: RAT, LIVER, S-9, SODIUM PHENOBARBITAL AND 5,6-BENZOFLAVONE
  mutagenic call: active; positive (structural changes)
Test System: AMES SALMONELLA TYPHIMURIUM, Strain/Indicator: RSJ100, Metabolic Activation: NONE, Method: PREINCUBATION
  mutagenic call: inactive; negative
Test System: AMES SALMONELLA TYPHIMURIUM, Strain/Indicator: RSJ100, Metabolic Activation: RAT LIVER S-9, AROCLOR 1254, Method: PREINCUBATION
  mutagenic call: inactive; negative
Test System: AMES SALMONELLA TYPHIMURIUM, Strain/Indicator: TA98, Metabolic Activation: RAT LIVER S-9, AROCLOR 1254, Method: PREINCUBATION
  mutagenic call: active; positive
Test System: AMES SALMONELLA TYPHIMURIUM, Strain/Indicator: TA98, Metabolic Activation: RAT LIVER S-9, PHENOBARBITAL AND BETA-NAPHTHOFLAVONE, Method: PREINCUBATION
  mutagenic call: inactive; negative
Test System: AMES SALMONELLA TYPHIMURIUM, Strain/Indicator: TA100, Metabolic Activation: NONE, Method: FLUCTUATION TEST
  mutagenic call: inactive; negative
Test System: AMES SALMONELLA TYPHIMURIUM, Strain/Indicator: TA100, Metabolic Activation: NONE, Method: PREINCUBATION
  mutagenic call: active; positive
Test System: AMES SALMONELLA TYPHIMURIUM, Strain/Indicator: TA100, Metabolic Activation: RAT LIVER S-9, AROCLOR 1254, Method: PREINCUBATION
  mutagenic call: active; positive
Test System: AMES SALMONELLA TYPHIMURIUM, Strain/Indicator: TA100, Metabolic Activation: RAT LIVER S-9, PHENOBARBITAL AND BETA-NAPHTHOFLAVONE, Method: PREINCUBATION
  mutagenic call: inactive; negative
Test System: AMES SALMONELLA TYPHIMURIUM, Strain/Indicator: TA100, Metabolic Activation: RAT, LIVER, S-9, AROCLOR 1254, Method: FLUCTUATION TEST
  mutagenic call: active; positive
Test System: AMES SALMONELLA TYPHIMURIUM, Strain/Indicator: TA1535, Metabolic Activation: NONE, Method: PREINCUBATION
  mutagenic call: inactive; negative
Test System: AMES SALMONELLA TYPHIMURIUM, Strain/Indicator: TA1535, Metabolic Activation: RAT LIVER S-9, PHENOBARBITAL AND BETA-NAPHTHOFLAVONE, Method: PREINCUBATION
  mutagenic call: inactive; negative
Test System: AMES SALMONELLA TYPHIMURIUM, Strain/Indicator: TA1537, Metabolic Activation: NONE, Method: PREINCUBATION
  mutagenic call: inactive; negative
Test System: AMES SALMONELLA TYPHIMURIUM, Strain/Indicator: TA1537, Metabolic Activation: RAT LIVER S-9, PHENOBARBITAL AND BETA-NAPHTHOFLAVONE, Method: PREINCUBATION
  mutagenic call: inactive; negative
Test System: E.COLI, Strain/Indicator: WP2UVRA, Metabolic Activation: NONE, Method: PREINCUBATION
  mutagenic call: inactive; negative
Test System: E.COLI, Strain/Indicator: WP2UVRA, Metabolic Activation: RAT LIVER S-9, PHENOBARBITAL AND BETA-NAPHTHOFLAVONE, Method: PREINCUBATION
  mutagenic call: inactive; negative

## Clc1cc2ccccc2c2ccccc12
Test System: AMES SALMONELLA TYPHIMURIUM, Strain/Indicator: TA98, Metabolic Activation: NONE, Method: STANDARD PLATE
  mutagenic call: inactive; negative
Test System: AMES SALMONELLA TYPHIMURIUM, Strain/Indicator: TA98, Metabolic Activation: RAT, LIVER, S-9, AROCLOR 1254, Method: STANDARD PLATE
  mutagenic call: active; positive
Test System: AMES SALMONELLA TYPHIMURIUM, Strain/Indicator: TA100, Metabolic Activation: NONE, Method: STANDARD PLATE
  mutagenic call: inactive; negative
Test System: AMES SALMONELLA TYPHIMURIUM, Strain/Indicator: TA100, Metabolic Activation: RAT, LIVER, S-9, AROCLOR 1254, Method: STANDARD PLATE
  mutagenic call: inactive; negative
